Results: patent US6797721B2, “Phorboxazole derivatives for treating cancer” (Parker Hughes Institute, priority 1999, dated 2004)
Read-outs that look alike come from different tables or passages of the source.

What was measured:
[1] = tested on: NALM-6 human B-lineage acute lymphoblastic leukemia cells; assay: MTT cytotoxicity assay, NALM-6; assay type: cell-based
Description: (§1) The cytotoxicity assay of synthetic Phorboxazole A and various derivative compounds against human tumor cells was performed using the MTT (3-[4,5-dimethylthiazol-2-yl]-2,5-diphenyl tetrazolium bromide) assay (Boehringer Mannheim Corp., Indianapolis, Ind.). Briefly, exponentially growing brain tumor cells were seeded into a 96-well plate at a density of 2.5×10^4 cells/well and incubated for 36 hours at 37° C. prior to drug exposure. On the day of treatment, culture medium was carefully aspirated from the wells and replaced with fresh medium containing the various phorboxazole A derivative compounds as well as the tyrosine kinase inhibitory isoflavone genistein (GEN) at concentrations ranging from 0.1 to 250 μM. Triplicate wells were used for each treatment.
(§2) Human glioblastoma cells U373 (brain cancer), human B-lineage acute lymphoblastic leukemia cells NALM-6, and human breast cancer cells BT-20 were obtained from American Type Culture Collection (Rockville, Md.) and maintained as a continuous cell line in Dulbecco's modified Eagles's medium supplemented with 10% fetal bovine serum and antibiotics.
(§3) The cells were incubated with the various compounds for 24-36 hours at 37° C. in a humidified 5% CO2 atmosphere. To each well, 10 μl of MTT (0.5 mg/ml final concentration) was added and the plates were incubated at 37° C. for 4 hours to allow MTT to form formazan crystals by reacting with metabolically active cells. The fonnazan crystals were solubilized overnight at 37° C. in a solution containing 10% SDS in 0.01 M HCl. The absorbance of each well was measured in a microplate reader (Labsystems) at 540 nm and a reference wavelength of 690 nm. To translate the OD540 values into the number of live cells in each well, the OD540 values were compared to those on standard OD540-versus-cell number curves generated for each cell line. The percent survival was calculated using the formula: [formula]
(§4) The IC50 values were calculated by non-linear regression analysis.

[2] = tested on: U373 human glioblastoma cells; assay: MTT cytotoxicity assay, U373; assay type: cell-based; conditions: U373 MG, read-out: IC50 [MTT]
Description: as §1, §2, §3, §4

[3] = tested on: BT-20 human breast cancer cells; assay: MTT cytotoxicity assay, BT-20; assay type: cell-based
Description: as §1, §2, §3, §4

[4] = tested on: MDA-MB-231 breast cancer cells; assay: In vitro adhesion assay to ECM proteins, MDA-MB-231; assay type: cell-based, human; conditions: laminin-, fibronectin-, and collagen-coated plates, 0.1 μM to 1 μM for 24 hours
Description: (§5) Human brain tumor cell lines U-373 MG and breast cancer cell lines BT-20 and MDA-MB-231 were obtained from American Type Culture Collection (ATCC, Rockville, Md.) and maintained in liquid culture using DMEM supplemented with 10% fetal bovine serum and antibiotics. Fibroblast conditioned medium was used as a source of chemoattractant in vitro invasion assays. Conditioned medium was prepared as described in the literature (Albini et.al., 1987, Cancer Res., 47:3239-3245).
(§6) In vitro adhesion assays were performed to (a) study the baseline adhesive properties of various breast cancer and glioblastoma cell lines and (b) evaluate the effects of phorboxazole A derivatives on the adhesive properties of breast cancer and glioblastoma cells. The plates for the adhesion assays were precoated with the extracellular matrix proteins laminin, fibronectin, or type IV collagen (each at a final concentration of 1 μg/ml in PBS) overnight at 4° C. and dried. On the day of the experiment, the wells were rehydrated and blocked with 10% bovine serum albumin in PBS for 1 hour at room temperature and used for the adhesion assays, as described below.
(§7) The effects of synthetic phorboxazole A and specific derivatives on adhesion of breast cancer and glioblastoma cells was studied. Exponentially growing cells in DMEM were incubated with phorboxazole compounds or genistein as a control at concentrations ranging from 0.1 μM to 1 μM for 24 hours in a humidified 5% CO2 atmosphere. DMSO (0.1%) was included as a vehicle control. After treatment, cells were detached from the flasks with 0.05% trypsin (Life Technologies) resuspended in DMEM, incubated at 37° C. for 2 hours to allow them to recover from the trypsinization stress and examined for their ability to adhere to plates precoated with ECM proteins.
(§8) In adhesion assays, cells were centrifuged, washed twice with serum-free DMEM, counted and resuspended in serum-free DMEM to a final concentration of 2.5×10^5 cells/ml. […] The adherent fraction was quantitated using MTT (3-[4,5-dimethylthiazol-2-yl]-2,5-diphenyltetrazolium bromide) assays. […] The absorbance of each well was measured in a microplate reader (Labsystems) at 540 nm and a reference wavelength of 690 nm.
(§9) To translate the OD540 values into the number of cells in each well, the OD540 values were compared to those on standard OD540-versus-cell number curves generated for each cell line. The adherent fractions of cells treated with phorboxazole A derivatives were compared to those of DMSO-treated control cells and the percent inhibition of adhesion was determined using the formula: [formula]
(§10) Each treatment condition was evaluated in duplicate in 3 independent experiments. The IC50 values were calculated by non-linear regression analysis. […]

U373 glioblastoma cells [5] = assay: Matrigel invasion assay (Boyden chambers); assay type: cell-based; conditions: Homo sapiens, U373 MG, read-out: IC50, inhibition of glioblastoma cell invasion through Matrigel
Description: The in vitro invasiveness of human brain tumor cell lines U-373 MG and breast cancer cell lines BT-20 and MDA-MB-231 cells was assayed using a previously published method which employs Matrigel™-coated Costar 24-well transwell cell culture chambers (“Boyden chambers”) with 8.0-μm-pore polycarbonate filter inserts (Albini,et.al, 1987, Cancer Res., 47:3239-3245). The chamber filters were coated with 50 μg/ml of Matrigel™ matrix, incubated overnight at room temperature under a laminar flow hood and stored at 4° C. Matrigel™ matrix is made up of several components of the extracellular matrix (ECM), including collagen, laminin and proteo-glycans. The cancer cells were incubated with 500, 250, 125, 62.5, and 31.2 nM concentrations of the synthetic Phorboxazole compounds for 72 hours.
On the day of the experiment, the coated inserts were rehydrated with 0.5 ml serum-free DMEM containing 0.1% bovine serum albumin for 1-2 hours. The treated cells were trypsinized, washed twice with serum-free DMEM containing BSA, counted and resuspended at 1×10^5 cells/ml. A 0.5 ml cell suspension containing 5×10^4 cells in a serum-free DMEM was added to the Matrigel™-coated and rehydrated filter inserts. A volume of 750 μl of NIH fibroblast conditioned medium was placed as a chemoattractant in 24-well plates and the inserts were placed in wells and incubated at 37° C. for 48 hours.
The invasive cells that migrated to the lower side of the filter were fixed, stained with Hema-3 solutions and counted under microscope. Five to 10 random fields per filter were counted to determine the mean (±SE) values for the invasive fraction. The invasive fractions of cells treated with phorboxazole A derivatives were compared to those of DMSO treated control cells and the percent inhibition of invasiveness was determined using the formula: [formula]
Each treatment condition was evaluated in duplicate in 3 independent experiments. IC50 values were calculated by non-linear regression analysis using Graphpad Prisin Software Version 2.0 (Graphpad Software Inc., San Diego, Calif.).

U373 glioblastoma cells [6] = assay: In vitro adhesion assay to ECM proteins, U373; assay type: cell-based, human; conditions: laminin-, fibronectin-, and collagen-coated plates, 0.1 μM to 1 μM for 24 hours
Description: as §5, §6, §7, §8, §9, §10

[7] = tested on: BT-20 breast cancer cells; assay: In vitro adhesion assay to ECM proteins, BT-20; assay type: cell-based, human; conditions: laminin-, fibronectin-, and collagen-coated plates, 0.1 μM to 1 μM for 24 hours
Description: as §5, §6, §7, §8, §9, §10

[8] = NALM-6 (leukemia, ALL), 24-36 hours, read-out: IC50 [MTT]
[9] = U373 (brain tumor, glioblastoma), 24-36 hours
[10] = BT-20 (breast cancer), 24-36 hours, read-out: IC50 [MTT]

Row | SMILES | IC50 ([1]; NALM-6, read-out: IC50 [MTT]) [nM] | IC50 [2] [nM] | IC50 ([3]; BT-20, read-out: IC50 [MTT]) [nM] | IC50 [1, 8] [nM] | IC50 [2, 9] [nM] | IC50 [3, 10] [nM] | Inhibition of cell adhesion [4] | IC50 (U373 glioblastoma cells [5]) [nM] | Inhibition of cell adhesion (U373 glioblastoma cells [6]) | Inhibition of cell adhesion [7] | IC50 (U373 glioblastoma cells [5]; cells treated 72 hours, invasion 48 hours) [nM]
1 | C=C1C[C@@H]2C[C@@H]3C[C@@H](O)C[C@@H](O3)c3coc(n3)/C=C/C[C@H]3O[C@@H](/C(C)=C/c4coc(C)n4)[C@H](C)[C@@H](OC(=O)/C=C\C[C@@H](C1)O2)[C@H]3C [Compound 2, 32-Methyl-phorboxolide A (C1-C32 analog)] | > 2000 | > 2000 | > 2000 | – | – | – | – | – | – | – | –
2 | C=C1C[C@@H]2C[C@@H]3C[C@@H](O)C[C@@H](O3)c3coc(n3)/C=C/C[C@H]3O[C@@H](/C(C)=C/c4coc(C[C@]5(O)C[C@H](OC)C[C@H](CO)O5)n4)[C@H](C)[C@@H](OC(=O)/C=C\C[C@@H](C1)O2)[C@H]3C [Compound 3, C1-C38 Phorboxazole A] | – | – | – | > 2000 | > 2000 | > 2000 | – | – | – | – | –
3 | COC(=O)/C=C/C[C@H]1O[C@@H](/C(C)=C/c2coc(C[C@]3(O)C[C@H](OC)C[C@H]([C@H](O)/C=C(C)/C=C/[C@@H](C/C=C/Br)OC)O3)n2)[C@H](C)[C@@H](OC(C)=O)[C@H]1C [Compound 4, 24-O-Acetyl-18-methyl-phorboxylate (C18-C46 analog)] | > 2000 | > 2000 | > 2000 | – | – | – | active | 152 | active | active | –
4 | COC(=O)C[C@]1(O)C[C@H](OC)C[C@H]([C@H](O)/C=C(C)/C=C/[C@@H](C/C=C/Br)OC)O1 [Compound 5, 31-Methyl-phorboxylate (C31-C46 analog)] | > 2000 | > 2000 | > 2000 | – | – | – | active | 422 | active | active | –
5 | C=C1C[C@@H]2C[C@@H]3C[C@@H](O)C[C@@H](O3)c3coc(n3)/C=C/C[C@H]3O[C@@H](/C(C)=C/C(CO)NC(=O)C[C@]4(O)C[C@H](OC)C[C@H]([C@H](O)/C=C(C)/C=C/[C@@H](C/C=C/Br)OC)O4)[C@H](C)[C@@H](OC(=O)/C=C\C[C@@H](C1)O2)[C@H]3C (stereo partly drawn) [Compound 6, 29-Phorboxamide A (hydrated analog)] | – | – | – | > 2000 | > 2000 | > 2000 | active | – | active | active | < 125
6 | C#CC[C@H](/C=C/C(C)=C/[C@@H](O)[C@H]1C[C@@H](OC)C[C@](Cc2nc(/C=C(\C)[C@@H]3O[C@@H]4C/C=C/c5nc(co5)[C@H]5C[C@H](O)C[C@@H](C[C@H]6CC(=C)C[C@H](C/C=C\C(=O)O[C@@H]([C@H]4C)[C@H]3C)O6)O5)co2)(OC)O1)OC [Compound 7, 45,46-Dehydrobromo-33-O-methyl-Phorboxazole A] | – | – | – | > 2000 | > 2000 | > 2000 | – | – | – | – | –
7 | C=C1C[C@@H]2C[C@@H]3C[C@@H](O)C[C@@H](O3)c3coc(n3)/C=C/C[C@H]3O[C@@H](/C(C)=C/c4coc(C[C@]5(O)C[C@H](OC)C[C@H]([C@H](O)/C=C(C)/C=C/[C@@H](C/C=C/Br)OC)O5)n4)[C@H](C)[C@@H](OC(=O)CCC[C@@H](C1)O2)[C@H]3C [Compound 10, 2,3-Dihydrophorboxazole A] | – | – | – | > 2000 | > 2000 | > 2000 | – | – | – | – | –
